One assay has as its target FXa (Homo sapiens, UniProt P00742). Nature of the assay: Related protease inhibition: FXa, fluorogenic substrate. Type of assay: biochemical. Conditions: fluorogenic substrate at Km, 25° C.; H1-H3 = % activity at 40 μM. How it is done: Human serine protease enzyme Plasma Kallikrein, KLK1, FXa, Plasmin, Thrombin and Trypsin were assayed for enzymatic activity using an appropriate fluorogenic substrate at Km concentration, FXIa at fixed substrate concentration of 100 μM and various concentrations of the test compound.

For assay [1], the target named is T1, Human Factor XIIa (hFXIIa) (Homo sapiens, UniProt P00748).
T1 construct: purchased Enzyme Research Laboratories
T1 sequence (P00748 373-615 limits assumed): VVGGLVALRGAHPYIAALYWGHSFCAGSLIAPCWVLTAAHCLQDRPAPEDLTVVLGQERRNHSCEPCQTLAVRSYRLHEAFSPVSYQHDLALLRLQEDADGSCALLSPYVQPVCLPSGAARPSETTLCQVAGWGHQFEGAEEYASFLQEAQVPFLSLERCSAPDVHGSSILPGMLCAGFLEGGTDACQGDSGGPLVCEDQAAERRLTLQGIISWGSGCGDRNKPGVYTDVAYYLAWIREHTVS
T1 sequence (P00748 20-372 partner limits assumed): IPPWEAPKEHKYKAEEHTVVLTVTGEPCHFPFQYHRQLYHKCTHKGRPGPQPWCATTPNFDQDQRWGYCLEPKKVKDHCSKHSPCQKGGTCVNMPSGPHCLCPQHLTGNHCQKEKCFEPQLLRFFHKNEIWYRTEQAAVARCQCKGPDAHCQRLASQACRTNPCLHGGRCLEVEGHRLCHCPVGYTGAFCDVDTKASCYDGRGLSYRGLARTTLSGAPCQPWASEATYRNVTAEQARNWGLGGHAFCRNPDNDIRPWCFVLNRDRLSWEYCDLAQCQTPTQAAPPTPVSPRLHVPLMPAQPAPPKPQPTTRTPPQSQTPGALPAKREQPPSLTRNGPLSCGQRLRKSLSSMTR
In words: Determination of Human Factor XIIa (hFXIIa) inhibition, fluorogenic substrate IC50 assay. Type of assay: biochemical. Particulars: fluorogenic substrate H-DPro-Phe-Arg-AFC at Km, 25° C., read-out: Human FXIIa IC50. How it is done:
Determination of Human Factor XIIa (hFXIIa) inhibition
The Km for the cleavage of the substrate by hFXIIa was determined by standard transformation of the Michaelis-Menten equation, with subsequent inhibition assays performed at substrate Km concentration.

pIC50: −log10 of the molar value.

Chain of FXa (P00742 235-488 limits assumed): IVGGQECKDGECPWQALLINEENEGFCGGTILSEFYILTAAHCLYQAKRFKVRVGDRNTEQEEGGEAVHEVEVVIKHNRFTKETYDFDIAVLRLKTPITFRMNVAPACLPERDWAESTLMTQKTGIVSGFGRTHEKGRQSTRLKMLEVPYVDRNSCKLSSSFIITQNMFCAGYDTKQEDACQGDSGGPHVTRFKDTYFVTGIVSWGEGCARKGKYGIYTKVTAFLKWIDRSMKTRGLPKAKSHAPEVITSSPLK
Chain of FXa (P00742 41-179 partner limits assumed): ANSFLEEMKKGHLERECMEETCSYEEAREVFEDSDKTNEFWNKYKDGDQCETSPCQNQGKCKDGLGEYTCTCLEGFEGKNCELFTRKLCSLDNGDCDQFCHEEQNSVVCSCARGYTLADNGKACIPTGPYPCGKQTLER

By pIC50 is commonly meant −log10 of the IC50, conventionally taken in molar units. As for `COc1ccc(CNC(=O)c2nn(-c3cccc(Cl)c3)c3c2CCN(c2ccc4c(c2)C(=O)N(C)CC4)C3=O)cn1` [Example 1235, 1-(3-chlorophenyl)-N-((6-methoxypyridin-3-yl)methyl)-6-(2-methyl-1-oxo-1,2,3,4-tetrahydroisoquinolin-7-yl)-7-oxo-4,5,6,7-tetrahydro-1H-pyrazolo[3,4-c]pyridine-3-carboxamide], the values for the pIC50 (against FXa; in assay [1]) were less than 4.40 and 6.52 to 7.00, respectively.
`COc1cccnc1CNC(=O)c1nn(-c2cccc(Cl)c2)c2c1CCN(c1ccc3c(c1)C(=O)N(C)CC3)C2=O` [Example 1233, 1-(3-chlorophenyl)-N-((3-methoxypyridin-2-yl)methyl)-6-(2-methyl-1-oxo-1,2,3,4-tetrahydroisoquinolin-7-yl)-7-oxo-4,5,6,7-tetrahydro-1H-pyrazolo[3,4-c]pyridine-3-carboxamide]: the results for the negative-log IC50 (pIC50) (on FXa; in assay [1]) were less than 4.40 and 6.52 to 7.00, respectively.
For `O=C(NCc1cncc(F)c1)c1nn(-c2cccc(Cl)c2)c2c1CCN(c1ccc3c(c1)CN(CCO)CC3)C2=O` [Example 1137, 1-(3-chlorophenyl)-N-((5-fluoropyridin-3-yl)methyl)-6-(2-(2-hydroxyethyl)-1,2,3,4-tetrahydroisoquinolin-7-yl)-7-oxo-4,5,6,7-tetrahydro-1H-pyrazolo[3,4-c]pyridine-3-carboxamide], the figures for the negative logarithm of the IC50 (pIC50) (against FXa; in assay [1]) were 4.40 to 5.00 and 7.00 to 8.00, respectively.
On the same counts, the results for `O=C(NCc1cnccc1Cl)c1nn(-c2cccc(Cl)c2)c2c1CCN(c1ccc3c(c1)CN(CCO)CC3)C2=O` [Example 1154, 1-(3-chlorophenyl)-N-((4-chloropyridin-3-yl)methyl)-6-(2-(2-hydroxyethyl)-1,2,3,4-tetrahydroisoquinolin-7-yl)-7-oxo-4,5,6,7-tetrahydro-1H-pyrazolo[3,4-c]pyridine-3-carboxamide] are 4.40 to 5.00 and 7.00 to 8.00.
As for `O=C(NCC1CC1)c1nn(-c2cccc(Cl)c2)c2c1CCN(c1ccc3c(c1)CN(C1COC1)CC3)C2=O` [Example 1032, 1-(3-chlorophenyl)-N-(cyclopropylmethyl)-6-(2-(oxetan-3-yl)-1,2,3,4-tetrahydroisoquinolin-7-yl)-7-oxo-4,5,6,7-tetrahydro-1H-pyrazolo[3,4-c]pyridine-3-carboxamide], the pIC50 against FXa was less than 4.40; in assay [1], 6.00 to 6.52.
For `Cc1cc(CNC(=O)c2nn(-c3cccc(Cl)c3)c3c2CCN(c2cc4c(nn2)CCN(CCO)C4)C3=O)nn1C` [Example 1227, 1-(3-chlorophenyl)-N-((1,5-dimethyl-1H-pyrazol-3-yl)methyl)-6-(6-(2-hydroxyethyl)-5,6,7,8-tetrahydropyrido[4,3-c]pyridazin-3-yl)-7-oxo-4,5,6,7-tetrahydro-1H-pyrazolo[3,4-c]pyridine-3-carboxamide], the negative-log IC50 (pIC50) at FXa is 4.40 to 5.00; in assay [1], 6.52 to 7.00.
As to `Cc1cc(CNC(=O)c2nn(-c3cccc(Cl)c3)c3c2CCN(c2ccc4c(c2)C(=O)N(CCO)CCC4)C3=O)nn1C` [Example 1305, 1-(3-chlorophenyl)-N-((1,5-dimethyl-1H-pyrazol-3-yl)methyl)-6-(2-(2-hydroxyethyl)-1-oxo-2,3,4,5-tetrahydro-1H-benzo[c]azepin-8-yl)-7-oxo-4,5,6,7-tetrahydro-1H-pyrazolo[3,4-c]pyridine-3-carboxamide], the pIC50 is 5.00 to 5.52 against FXa and 7.00 to 8.00 in assay [1].
For the compound `COCCN1CCc2ccc(N3CCc4c(C(=O)NCc5cc(C)n(C)n5)nn(-c5cccc(Cl)c5)c4C3=O)cc2C1=O` [Example 1262, 1-(3-chlorophenyl)-N-((1,5-dimethyl-1H-pyrazol-3-yl)methyl)-6-(2-(2-methoxyethyl)-1-oxo-1,2,3,4-tetrahydroisoquinolin-7-yl)-7-oxo-4,5,6,7-tetrahydro-1H-pyrazolo[3,4-c]pyridine-3-carboxamide], the pIC50 on FXa is 4.40 to 5.00; in assay [1], 6.52 to 7.00.
Turning to `CN1CCc2ccc(N3CCc4c(C(=O)NCC5COC5)nn(-c5cccc(Cl)c5)c4C3=O)cc2C1=O` [Example 1339, 1-(3-chlorophenyl)-6-(2-methyl-1-oxo-1,2,3,4-tetrahydroisoquinolin-7-yl)-N-(oxetan-3-ylmethyl)-7-oxo-4,5,6,7-tetrahydro-1H-pyrazolo[3,4-c]pyridine-3-carboxamide], the negative-log IC50 (pIC50) at FXa is less than 4.40; in assay [1] it was 6.00 to 6.52.
Take `O=C(NCC1CC1)c1nn(-c2cccc(Cl)c2)c2c1CCN(c1ccc3c(c1)CNCC3)C2=O` [Example 1074, 1-(3-chlorophenyl)-N-(cyclopropylmethyl)-7-oxo-6-(1,2,3,4-tetrahydroisoquinolin-7-yl)-4,5,6,7-tetrahydro-1H-pyrazolo[3,4-c]pyridine-3-carboxamide]: the negative-log IC50 (pIC50) against FXa is 4.40 to 5.00; in assay [1] it was 5.52 to 6.00.
Turning to `CN1CCc2ccc(N3CCc4c(C(=O)NC5(C(=O)O)CC5)nn(-c5cccc(Cl)c5)c4C3=O)cc2C1=O` [Example 1361, 1-(1-(3-chlorophenyl)-6-(2-methyl-1-oxo-1,2,3,4-tetrahydroisoquinolin-7-yl)-7-oxo-4,5,6,7-tetrahydro-1H-pyrazolo[3,4-c]pyridine-3-carboxamido)cyclopropane-1-carboxylic acid], the results for the pIC50 (on FXa; in assay [1]) were 4.40 to 5.00 and 5.52 to 6.00, respectively.
For the compound `O=C(NCC1CC1)c1nn(-c2cccc(Cl)c2)c2c1CCN(c1ccc3c(c1)C(=O)N(CC1CCOC1)CC3)C2=O` (centres unmarked) [Example 1257, 1-(3-chlorophenyl)-N-(cyclopropylmethyl)-7-oxo-6-(1-oxo-2-((tetrahydrofuran-3-yl)methyl)-1,2,3,4-tetrahydroisoquinolin-7-yl)-4,5,6,7-tetrahydro-1H-pyrazolo[3,4-c]pyridine-3-carboxamide], the negative-log IC50 (pIC50) against FXa was less than 4.40; in assay [1], 6.00 to 6.52.
`O=C(NCc1cccnc1)c1nn(-c2cccc(Cl)c2)c2c1CCN(c1ccc3c(c1)CN(CCO)CC3)C2=O` [Example 1078, 1-(3-chlorophenyl)-6-(2-(2-hydroxyethyl)-1,2,3,4-tetrahydroisoquinolin-7-yl)-7-oxo-N-(pyridin-3-ylmethyl)-4,5,6,7-tetrahydro-1H-pyrazolo[3,4-c]pyridine-3-carboxamide]: the pIC50 at FXa was 5.00 to 5.52; in assay [1] it was 7.00 to 8.00.
On to `O=C(NC1CCOCC1)c1nn(-c2cccc(Cl)c2)c2c1CCN(c1ccc3c(c1)CN(CCO)CC3)C2=O` [Example 1076, 1-(3-chlorophenyl)-6-(2-(2-hydroxyethyl)-1,2,3,4-tetrahydroisoquinolin-7-yl)-7-oxo-N-(tetrahydro-2H-pyran-4-yl)-4,5,6,7-tetrahydro-1H-pyrazolo[3,4-c]pyridine-3-carboxamide], for which the pIC50 at FXa was 4.40 to 5.00; in assay [1], 6.52 to 7.00.
As for `O=C(NCc1ncccc1F)c1nn(-c2cccc(Cl)c2)c2c1CCN(c1ccc3c(c1)CN(CCO)CC3)C2=O` [Example 1130, 1-(3-chlorophenyl)-N-((3-fluoropyridin-2-yl)methyl)-6-(2-(2-hydroxyethyl)-1,2,3,4-tetrahydroisoquinolin-7-yl)-7-oxo-4,5,6,7-tetrahydro-1H-pyrazolo[3,4-c]pyridine-3-carboxamide], the results for the negative-log IC50 (pIC50) (against FXa; in assay [1]) were 4.40 to 5.00 and 7.00 to 8.00, respectively.
Turning to `CCNC(=O)c1nn(-c2cccc(Cl)c2)c2c1CCN(c1cccc(N3CCCC3=O)c1)C2=O` [Example 1365, 1-(3-chlorophenyl)-N-ethyl-7-oxo-6-(3-(2-oxopyrrolidin-1-yl)phenyl)-4,5,6,7-tetrahydro-1H-pyrazolo[3,4-c]pyridine-3-carboxamide], the figures for the pIC50 (at FXa; in assay [1]) were less than 4.40 and 5.52 to 6.00, respectively.
Consider `CN1CCc2ccc(N3CCc4c(C(=O)NCC5CCOC5)nn(-c5cccc(Cl)c5)c4C3=O)cc2C1` (centres unmarked) [Example 1026, 1-(3-chlorophenyl)-6-(2-methyl-1,2,3,4-tetrahydroisoquinolin-7-yl)-7-oxo-N-((tetrahydrofuran-3-yl)methyl)-4,5,6,7-tetrahydro-1H-pyrazolo[3,4-c]pyridine-3-carboxamide], for which the pIC50 against FXa was 4.40 to 5.00; in assay [1] it was 6.00 to 6.52.
For `CCN1Cc2cc(N3CCc4c(C(=O)NCC5CC5)nn(-c5cccc(Cl)c5)c4C3=O)ccc2C2(CC2)C1` [Example 1099, 1-(3-chlorophenyl)-N-(cyclopropylmethyl)-6-(2′-ethyl-2′,3′-dihydro-1′H-spiro[cyclopropane-1,4′-isoquinolin]-7′-yl)-7-oxo-4,5,6,7-tetrahydro-1H-pyrazolo[3,4-c]pyridine-3-carboxamide], the negative logarithm of the IC50 (pIC50) on FXa was 5.00 to 5.52; in assay [1], 7.00 to 8.00.
For `CN1CCc2ccc(N3CCc4c(C(=O)NCC5CCCO5)nn(-c5cccc(Cl)c5)c4C3=O)cc2C1` (centres unmarked) [Example 1025, 1-(3-chlorophenyl)-6-(2-methyl-1,2,3,4-tetrahydroisoquinolin-7-yl)-7-oxo-N-((tetrahydrofuran-2-yl)methyl)-4,5,6,7-tetrahydro-1H-pyrazolo[3,4-c]pyridine-3-carboxamide], the results for the pIC50 (against FXa; in assay [1]) were 5.00 to 5.52 and 6.00 to 6.52, respectively.

These data come from US20260132132A1, “3A,4,5,6-TETRAHYDRO-1 H-PYRAZOLO[3,4-C]PYRIDIN-7(7AH)-ONE DERIVATIVES AS FACTOR XIIA INHIBITORS” (KALVISTA PHARMACEUTICALS LIMITED, priority 2022, published 2026).
